ChEMBL document CHEMBL1147381, “Two new cytotoxic chalcones from Calythropsis aurea” (J Nat Prod, 1993)

Experiments:
[1] = tested on: L1210; assay: Cytotoxicity against mouse L1210 cells after 24 hrs; type: functional, cell-based; details: L1210, 24 h
[2] = Cytotoxicity against human NCI60 cells after 2 days by XTT assay; type: functional; details: NCI60, 48 h

**Q.** For `COc1ccc(C(=O)/C=C/c2ccc(O)c(O)c2)c(O)c1` [CALYTHROPSIN], which IC50 [1] is on record?
**A.** 7 µM

**Q.** What about the GI50 [2] of the same compound?
**A.** 0.66 µM

**Q.** And the TGI [2]?
**A.** 19.7 µM

**Q.** And the CC50 ([2]; read-out: LC50 (the source's name))?
**A.** > 50 µM
